Results taken from patent publication US7547763B2, “Sequences of an Ih ion channel and use thereof” (Forschungszentrum Julich GmbH, priority 1998, dated 2009).
pKi: −log10 of the molar value.

Tests used:
SPIH channel [1] = assay: Whole-cell patch-clamp of SPIH currents in transfected HEK293 cells, cyclic nucleotides or caged derivatives in the pipette; assay type: cell-based, Strongylocentrotus purpuratus
Procedure: cDNA coding the SPIH polypeptide was transiently expressed in HEK293 cells, as described earlier (Baumann et al, 1994). SPIH-controlled currents were recorded with the patch-clamp method in the whole-cell configuration and cell-free membrane patches. The composition of various bath and pipette solutions is indicated in the legends of the figures (see below). The channels were activated by stepping the membrane voltage from +10 mV to various negative voltage values. Leakage currents were subtracted using a P/8 protocol. […] The solutions in the bath contained 0.03 to 10 mM CsCl. Relative ion permeabilities were calculated from the respective shift of Vrev, which was measured on cell-free inside-out membrane patches, when 100 mM K^+ in the bath had been replaced by Na^+, Li^+, Rb^+ or Cs^+. […] The voltage-step protocol is the same as in FIG. 2A. The bath contained (mM): 135 NaCl, 5 KCl, 1.8 CaCl2, 2.8 MgCl2 and 5 Hepes-NaOH at pH 7.4; the pipette solution contained […]

SPIH channel [2] = target: T1, SPIH channel (Strongylocentrotus purpuratus, UniProt O76977); assay: Patch-clamp of SPIH currents on excised inside-out membrane patches of transfected HEK293 cells, modulation by cyclic nucleotides; assay type: cell-based
T1 sequence (O76977 1-767): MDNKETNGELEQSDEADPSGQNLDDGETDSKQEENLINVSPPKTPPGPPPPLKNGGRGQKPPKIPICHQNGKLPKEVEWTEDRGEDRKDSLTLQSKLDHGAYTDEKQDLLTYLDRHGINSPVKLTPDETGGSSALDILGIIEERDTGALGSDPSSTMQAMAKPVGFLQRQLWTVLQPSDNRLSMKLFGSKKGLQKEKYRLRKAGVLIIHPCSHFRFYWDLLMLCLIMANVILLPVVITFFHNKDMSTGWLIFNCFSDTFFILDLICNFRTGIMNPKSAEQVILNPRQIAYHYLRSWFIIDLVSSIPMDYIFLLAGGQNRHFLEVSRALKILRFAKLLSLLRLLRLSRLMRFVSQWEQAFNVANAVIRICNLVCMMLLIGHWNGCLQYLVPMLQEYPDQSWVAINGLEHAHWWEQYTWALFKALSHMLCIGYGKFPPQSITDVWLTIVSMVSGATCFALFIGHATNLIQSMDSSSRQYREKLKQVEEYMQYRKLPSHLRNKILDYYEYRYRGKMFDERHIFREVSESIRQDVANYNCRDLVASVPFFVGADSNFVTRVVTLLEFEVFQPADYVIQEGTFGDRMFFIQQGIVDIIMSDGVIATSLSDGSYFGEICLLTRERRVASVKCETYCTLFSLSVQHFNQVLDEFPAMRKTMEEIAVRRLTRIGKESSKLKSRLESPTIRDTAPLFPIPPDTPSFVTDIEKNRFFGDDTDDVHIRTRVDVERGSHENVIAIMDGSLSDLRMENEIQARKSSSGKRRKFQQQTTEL
Procedure: (§1) cDNA coding the SPIH polypeptide was transiently expressed in HEK293 cells, as described earlier (Baumann et al, 1994). SPIH-controlled currents were recorded with the patch-clamp method in the whole-cell configuration and cell-free membrane patches. The composition of various bath and pipette solutions is indicated in the legends of the figures (see below). The channels were activated by stepping the membrane voltage from +10 mV to various negative voltage values. Leakage currents were subtracted using a P/8 protocol. The voltage dependence of the probability that the channel is open was determined from tail currents at +10 mV. The blockade of the SPIH channel by […] was analyzed with outside-out membrane patches in the presence of 1 mM cAPM in a pipette solution. The solutions in the bath contained 0.03 to 10 mM CsCl. Relative ion permeabilities were calculated from the respective shift of Vrev, which was measured on cell-free inside-out membrane patches, when 100 mM K^+ in the bath had been replaced by Na^+, Li^+, Rb^+ or Cs^+.

SPIH channel [3] = assay: Blockade of the SPIH channel by extracellular Cs+ on outside-out membrane patches; assay type: cell-based, Strongylocentrotus purpuratus
Procedure: as §1

## Nc1ncnc2c1ncn2[C@@H]1O[C@@H]2COP(=O)(O)O[C@H]2[C@H]1O [cAMP]
SPIH channel [1]; whole-cell tail currents, 1 mM cAMP in pipette, Boltzmann fit
  V1/2 of voltage dependence of Po: −50.8 mV
SPIH channel [2]; 1 mM cAMP, excised membrane patches
  enhancement of the amplitudes of the voltage-activated currents: up to 20 fold
SPIH channel [2]; inside-out patches, fit of Hill equation, mean of 10 experiments
  Hill coefficient n of the cAMP dependence of the SPIH current: 1.05
SPIH channel [2]; inside-out-patch tail currents, 1 mM cAMP in bath, Boltzmann fit
  V1/2 of voltage dependence of Po: −84.7 mV

## [Cs+] [Cs^+]
SPIH channel [3]; 10 mM Cs+ in the bath
  effect on currents: inward currents disappeared completely
SPIH channel [3]; at −70 mV, 1 mM cAMP in pipette, Hill fit, read-out: inhibitory constant Ki for block of standardized current I/Imax
  pKi: 3.61

## Nc1nc2c(ncn2[C@@H]2O[C@@H]3COP(=O)(O)O[C@H]3[C@H]2O)c(=O)[nH]1 [cGMP]
SPIH channel [1]; 1 mM in the pipette
  effect on SPIH-induced whole-cell currents: also changed the SPIH-induced currents
SPIH channel [2]; cGMP concentrations of up to 1 mM, excised membrane patches
  effect on amplitude of the SPIH currents: did not change the amplitude of the SPIH currents
